According to the NIST ThermoML archive (doi:10.1016/j.jct.2015.12.027):

Assays:
[1] = refractive index (Na D-line) (dimensionless); xn = mol fraction of the nth substance listed; details: 81.5 kPa, Liquid, Standard Abbe refractometry
[2] = xn = mol fraction of the nth substance listed; details: 81.5 kPa, Liquid, Vibrating tube method

Clc1ccccc1 [chlorobenzene] + ClCCCl
Details | mass density, 293.15 K [kg/m3] | mass density, 303.15 K [kg/m3] | mass density, 313.15 K [kg/m3] | mass density, 323.15 K [kg/m3] | mass density, 333.15 K [kg/m3] | refractive index, 293.15 K | refractive index, 303.15 K | refractive index, 313.15 K | refractive index, 323.15 K | refractive index, 333.15 K
[1], x2 = 0 | – | – | – | – | – | 1.52455 | 1.51902 | 1.51346 | 1.50781 | 1.50223
[1], x2 = 0.1022 | – | – | – | – | – | 1.51915 | 1.51376 | 1.50848 | 1.50327 | 1.49826
[1], x2 = 0.2027 | – | – | – | – | – | 1.51388 | 1.50871 | 1.50361 | 1.49855 | 1.49366
[1], x2 = 0.3126 | – | – | – | – | – | 1.50734 | 1.50235 | 1.49739 | 1.4924 | 1.4875
[1], x2 = 0.4014 | – | – | – | – | – | 1.50115 | 1.49625 | 1.49135 | 1.48642 | 1.48154
[1], x2 = 0.4994 | – | – | – | – | – | 1.49334 | 1.48847 | 1.48362 | 1.47874 | 1.47393
[1], x2 = 0.6002 | – | – | – | – | – | 1.48436 | 1.47949 | 1.47465 | 1.4698 | 1.46504
[1], x2 = 0.7 | – | – | – | – | – | 1.47478 | 1.46991 | 1.46504 | 1.46017 | 1.45535
[1], x2 = 0.7999 | – | – | – | – | – | 1.46481 | 1.45993 | 1.455 | 1.45001 | 1.44502
[1], x2 = 0.9007 | – | – | – | – | – | 1.45465 | 1.44969 | 1.44464 | 1.43948 | 1.43427
[2], x2 = 0 | 1106.49 | 1095.71 | 1084.86 | 1073.96 | 1063.01 | – | – | – | – | –
[2], x2 = 0.1022 | 1117.76 | 1106.63 | 1095.44 | 1084.22 | 1073.02 | – | – | – | – | –
[2], x2 = 0.2027 | 1129.4 | 1117.99 | 1106.5 | 1094.94 | 1083.38 | – | – | – | – | –
[2], x2 = 0.3126 | 1142.87 | 1131.14 | 1119.28 | 1107.34 | 1095.38 | – | – | – | – | –
[2], x2 = 0.4014 | 1154.41 | 1142.36 | 1130.2 | 1117.94 | 1105.63 | – | – | – | – | –
[2], x2 = 0.4994 | 1167.89 | 1155.52 | 1142.99 | 1130.34 | 1117.61 | – | – | – | – | –
[2], x2 = 0.6002 | 1182.73 | 1169.98 | 1157.05 | 1143.96 | 1130.77 | – | – | – | – | –
[2], x2 = 0.7 | 1198.46 | 1185.33 | 1171.98 | 1158.43 | 1144.78 | – | – | – | – | –
[2], x2 = 0.7999 | 1215.33 | 1201.74 | 1187.98 | 1173.96 | 1159.89 | – | – | – | – | –
[2], x2 = 0.9007 | 1233.56 | 1219.46 | 1205.18 | 1190.75 | 1176.31 | – | – | – | – | –

Brc1ccccc1 [bromobenzene] + ClCCCl
Details | mass density, 293.15 K [kg/m3] | mass density, 303.15 K [kg/m3] | mass density, 313.15 K [kg/m3] | mass density, 323.15 K [kg/m3] | mass density, 333.15 K [kg/m3] | refractive index, 293.15 K | refractive index, 303.15 K | refractive index, 313.15 K | refractive index, 323.15 K | refractive index, 333.15 K
[1], x2 = 0 | – | – | – | – | – | 1.55981 | 1.55442 | 1.5489 | 1.54319 | 1.53742
[1], x2 = 0.1031 | – | – | – | – | – | 1.55145 | 1.5466 | 1.54165 | 1.53652 | 1.53135
[1], x2 = 0.2005 | – | – | – | – | – | 1.54415 | 1.53939 | 1.53455 | 1.52957 | 1.52458
[1], x2 = 0.3001 | – | – | – | – | – | 1.53597 | 1.53114 | 1.52627 | 1.5213 | 1.51632
[1], x2 = 0.3997 | – | – | – | – | – | 1.5262 | 1.52135 | 1.51645 | 1.51147 | 1.5065
[1], x2 = 0.4996 | – | – | – | – | – | 1.51453 | 1.50972 | 1.50487 | 1.49994 | 1.49501
[1], x2 = 0.6001 | – | – | – | – | – | 1.50149 | 1.49679 | 1.49202 | 1.48719 | 1.48235
[1], x2 = 0.6993 | – | – | – | – | – | 1.48764 | 1.48301 | 1.47833 | 1.47357 | 1.46881
[1], x2 = 0.7993 | – | – | – | – | – | 1.47349 | 1.46883 | 1.46414 | 1.45938 | 1.45461
[1], x2 = 0.8986 | – | – | – | – | – | 1.45961 | 1.45476 | 1.44989 | 1.44499 | 1.44008
[2], x2 = 0 | 1495.52 | 1481.97 | 1468.41 | 1454.85 | 1441.22 | – | – | – | – | –
[2], x2 = 0.1031 | 1475.66 | 1461.99 | 1448.3 | 1434.54 | 1420.74 | – | – | – | – | –
[2], x2 = 0.2005 | 1455.9 | 1442.07 | 1428.17 | 1414.26 | 1400.29 | – | – | – | – | –
[2], x2 = 0.3001 | 1434.62 | 1420.64 | 1406.6 | 1392.5 | 1378.34 | – | – | – | – | –
[2], x2 = 0.3997 | 1412.26 | 1398.16 | 1383.98 | 1369.73 | 1355.39 | – | – | – | – | –
[2], x2 = 0.4996 | 1388.86 | 1374.68 | 1360.39 | 1345.98 | 1331.47 | – | – | – | – | –
[2], x2 = 0.6001 | 1364.37 | 1350.09 | 1335.69 | 1321.15 | 1306.48 | – | – | – | – | –
[2], x2 = 0.6993 | 1339.1 | 1324.73 | 1310.2 | 1295.56 | 1280.77 | – | – | – | – | –
[2], x2 = 0.7993 | 1312.25 | 1297.77 | 1283.16 | 1268.43 | 1253.56 | – | – | – | – | –
[2], x2 = 0.8986 | 1283.81 | 1269.28 | 1254.59 | 1239.77 | 1224.87 | – | – | – | – | –
